US20260070945A1, “MACROCYCLIC IMMUNOMODULATORS” (Bristol-Myers Squibb Company, priority 2022, published 2026)
*1 amine or outer side, *2 acyl side, *3 side chain or, on linkers, in order; H or OH if unused. Where a SMILES comes first, the peptide text is derived from it. Bridges are numbered along the chain shown (N, C = ends). [ ]: non-standard residue; d: D form. The star is where a group is joined. ξ: configuration not given here. Phe(3-CF3) = N[C@@H](Cc1cccc(C(F)(F)F)c1)C(=O)O; Phe(4-CONH2) = NC(=O)c1ccc(C[C@H](N)C(=O)O)cc1; Phe(4-COOH) = N[C@@H](Cc1ccc(C(=O)O)cc1)C(=O)O; Bip = N[C@@H](Cc1ccc(-c2ccccc2)cc1)C(=O)O; Phe(3-Me) = Cc1cccc(C[C@H](N)C(=O)O)c1; γGlu = O=C(O)[C@H](CCC(=O)[*:2])N[*:1]; Val(3-OH) = CC(C)(O)[C@H](N)C(=O)O; Hexyloxycarbonyl = CCCCCCOC(=O)*; aIle = CC[C@@H](C)[C@H](N)C(=O)O; 4Pal = N[C@@H](Cc1ccncc1)C(=O)O; Cha = N[C@@H](CC1CCCCC1)C(=O)O; Cit = NC(=O)NCCC[C@H](N)C(=O)O; Ile(3ξ) = CCC(C)[C@H](N)C(=O)O; Thr(3ξ) = CC(O)[C@H](N)C(=O)O; 12Ado = NCCCCCCCCCCCC(=O)O; hSer = N[C@@H](CCO)C(=O)O; Carboxymethyl = O=C(O)C*; NMeA = CN[C@@H](C)C(=O)O; Nle = CCCC[C@H](N)C(=O)O; Orn = NCCC[C@H](N)C(=O)O; Aun = NCCCCCCCCCCC(=O)O; Dab = NCC[C@H](N)C(=O)O; AEEA = NCCOCCOCC(=O)O

What follows are compounds tested against T1, PD-1/PD-L1 interaction (PE-labeled human PD-L1-Ig binding to Jurkat cell line over-expressing human PD-1) (Homo sapiens, UniProt Q15116) (assay: Jurkat-PD-1 Cell Binding High-Content Screening Assay (CBA)). Details: Jurkat-hPD-1 cells, PE-labeled PD-L1-Ig 20 nM final; read-out: Jurkat HPD1 PDL1 IC50.
T1 construct: expressed in transfected cells; host or cells: Jurkat
T1 sequence (Q15116 25-288): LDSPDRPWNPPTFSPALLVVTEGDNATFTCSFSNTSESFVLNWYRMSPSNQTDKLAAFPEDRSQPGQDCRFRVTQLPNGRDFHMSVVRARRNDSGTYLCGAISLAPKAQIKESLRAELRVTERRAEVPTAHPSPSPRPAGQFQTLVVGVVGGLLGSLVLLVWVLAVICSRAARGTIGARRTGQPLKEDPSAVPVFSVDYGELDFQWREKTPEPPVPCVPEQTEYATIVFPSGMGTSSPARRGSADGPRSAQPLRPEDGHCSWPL
Summary of the method: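 Read-out: high-content imaging of cell-bound PE fluorescence, with Hoechst 33342 nuclear counterstain after paraformaldehyde fixation. Before labeled ligand (20 nM final, 1 h) was added, compound sat on the cells for 2 h at 37 °C in DMEM/10% FCS.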

| Structure (SMILES) | IC50 [µM] |
| --- | --- |
| CCCCCCOC(=O)NCC[C@@H]1NC(=O)[C@@H](CC(C)C)NC(=O)[C@H](C)N(C)C(=O)[C@H](Cc2ccc(OCC(=O)O)cc2)NC(=O)[C@H](Cc2ccc(-c3ccccc3)cc2)NC(=O)[C@H](Cc2ccc(OCC(=O)O)cc2)NC(=O)[C@H](Cc2cccc(C)c2)NC(=O)[C@H](CC(=O)O)NC(=O)[C@H](Cc2ccc(OCC(=O)O)cc2)NC(=O)[C@H]([C@@H](C)O)NC(=O)CSC[C@@H](C(=O)N[C@@H](CCN)C(=O)NCCOCCOCC(=O)NCCCCCCCCCCC(=O)O)NC(=O)[C@H](CCC(=O)O)NC(=O)[C@H](C(C)C)NC(=O)[C@H](CC2CCCCC2)NC1=O [Example 1311] ({CH2CO}-TY(Carboxymethyl)D[Phe(3-Me)]Y(Carboxymethyl)[Bip]Y(Carboxymethyl)[NMeA][dL][Dab](Hexyloxycarbonyl)[Cha]VEC[Dab][AEEA][Aun]-OH; thioether N-14) | 0.244 |
| CC(C)C[C@@H]1NC(=O)[C@H](Cc2c[nH]c3ccccc23)NC(=O)[C@H](CC(=O)O)NC(=O)[C@H](Cc2ccc(C(=O)O)cc2)NC(=O)[C@H](Cc2ccc(OCC(=O)O)cc2)NC(=O)CSC[C@@H](C(=O)N[C@@H](CCN)C(=O)NCCOCCOCC(=O)NCCCCCCCCCCC(=O)O)NC(=O)[C@H](CCCCN)NC(=O)[C@H](C(C)C)NC(=O)[C@H](CC2CCCCC2)NC(=O)[C@H](CCN)NC(=O)[C@@H](C)NC(=O)[C@H](C)N(C)C(=O)[C@H](C(C)C)NC(=O)[C@H](Cc2ccc(-c3ccccc3)cc2)NC1=O [Example 2207] ({CH2CO}-Y(Carboxymethyl)[Phe(4-COOH)]DWL[Bip]V[NMeA][dA][Dab][Cha]VKC[Dab][AEEA][Aun]-OH; thioether N-14) | 0.0099 |
| Cc1cccc(C[C@@H]2NC(=O)[C@H](CC(=O)O)NC(=O)[C@H](Cc3ccc(OCC(=O)O)cc3)NC(=O)[C@H](C(C)O)NC(=O)CSC[C@@H](C(=O)N[C@H](CC(N)=O)C(=O)NCCCCCCCCCCC(=O)O)NC(=O)[C@H](C(C)O)NC(=O)[C@H](C(C)C)NC(=O)[C@H](CC3CCCCC3)NC(=O)[C@H](CCN)NC(=O)[C@@H](CC(C)C)NC(=O)[C@H](C)N(C)C(=O)[C@H](CCCNC(N)=O)NC(=O)[C@H](Cc3ccc(-c4ccccc4)cc3)NC(=O)[C@H](Cc3ccccc3)NC2=O)c1 (stereo partly drawn) [Example 2315] ({CH2CO}-[Thr(3ξ)]Y(Carboxymethyl)D[Phe(3-Me)]F[Bip][Cit][NMeA][dL][Dab][Cha]V[Thr(3ξ)]C[dN][Aun]-OH; thioether N-14) | 0.0097 |
| CC(=O)NCCCC[C@@H]1NC(=O)[C@H](CC2CCCCC2)NC(=O)[C@H](CCN)NC(=O)[C@@H](CC(C)C)NC(=O)[C@H](C)N(C)C(=O)[C@H](CCCNC(N)=O)NC(=O)[C@H](Cc2ccc(-c3ccccc3)cc2)NC(=O)[C@H](Cc2ccc(O)cc2)NC(=O)[C@H](Cc2cccc(C)c2)NC(=O)[C@H](CC(=O)O)NC(=O)[C@H](Cc2ccc(OCC(=O)O)cc2)NC(=O)[C@H](Cc2ccncc2)NC(=O)CSC[C@@H](C(=O)N[C@@H](CCCN)C(=O)N[C@@H](CO)C(=O)NCCCCCCCCCCCC(=O)O)NC(=O)[C@H](C(C)O)NC1=O (stereo partly drawn) [Example 2411] ({CH2CO}-[4Pal]Y(Carboxymethyl)D[Phe(3-Me)]Y[Bip][Cit][NMeA][dL][Dab][Cha]K(Ac)[Thr(3ξ)]C[Orn]S[12Ado]-OH; thioether N-14) | 0.0381 |
| CC[C@@H](C)[C@@H]1NC(=O)[C@H](Cc2ccc(-c3ccccc3)cc2)NC(=O)[C@H](C(C)C)NC(=O)[C@H](Cc2c[nH]c3ccccc23)NC(=O)[C@H](CC(=O)O)NC(=O)[C@H](Cc2ccc(OCC(=O)O)cc2)NC(=O)[C@H](CCCNC(N)=O)NC(=O)CSC[C@@H](C(=O)N[C@H](CC(N)=O)C(=O)NCCOCCOCC(=O)N[C@@H](CCC(=O)NCCOCCOCC(=O)N[C@@H](CCC(=O)NCCOCCOCC(=O)N[C@@H](CCCN)C(=O)NCCCCCCCCCCC(=O)O)C(=O)O)C(=O)O)NC(=O)[C@H](CO)NC(=O)[C@H](C(C)C)NC(=O)[C@H](CC2CCCCC2)NC(=O)[C@H](CC(N)=O)NC(=O)[C@@H](CC(C)C)NC(=O)[C@H](C)N(C)C1=O [Example 2024] ({CH2CO}-[Cit]Y(Carboxymethyl)DWV[Bip][aIle][NMeA][dL]N[Cha]VSC[dN][AEEA][γGlu][AEEA][γGlu][AEEA][Orn][Aun]-OH; thioether N-14) | 0.0383 |

Continued, values first:

| IC50 [µM] | Structure (SMILES) |
| --- | --- |
| 0.0246 | Cc1cccc(C[C@@H]2NC(=O)[C@H](CC(=O)O)NC(=O)[C@H](Cc3ccc(OCC(=O)O)cc3)NC(=O)[C@H](Cc3ccc(C(N)=O)cc3)NC(=O)CSC[C@@H](C(=O)N[C@@H](CCN)C(=O)NCCCCCCCCCCC(=O)O)NC(=O)[C@H](CO)NC(=O)[C@H](C(C)C)NC(=O)[C@H](CC3CCCCC3)NC(=O)[C@H](CCN)NC(=O)[C@@H](CC(C)C)NC(=O)[C@H](C)N(C)C(=O)[C@H](Cc3ccc(O)cc3)NC(=O)[C@H](Cc3ccc(-c4ccccc4)cc3)NC(=O)[C@H](Cc3ccc(OCC(=O)O)cc3)NC2=O)c1 [Example 1277] ({CH2CO}-[Phe(4-CONH2)]Y(Carboxymethyl)D[Phe(3-Me)]Y(Carboxymethyl)[Bip]Y[NMeA][dL][Dab][Cha]VSC[Dab][Aun]-OH; thioether N-14) |
| 0.0143 | Cc1cccc(C[C@@H]2NC(=O)[C@H](CC(=O)O)NC(=O)[C@H](Cc3ccc(OCC(=O)O)cc3)NC(=O)[C@H](CCCNC(=N)N)NC(=O)CSC[C@@H](C(=O)N[C@@H](CCN)C(=O)NCCCCCCCCCCC(=O)O)NC(=O)[C@H](C(C)O)NC(=O)[C@H](C(C)C)NC(=O)[C@H](CC3CCCCC3)NC(=O)[C@H](CCN)NC(=O)[C@@H](CC(C)C)NC(=O)[C@H](C)N(C)C(=O)[C@H](Cc3ccc(OCC(=O)O)cc3)NC(=O)[C@H](Cc3ccc(-c4ccccc4)cc3)NC(=O)[C@H](CCC(=O)O)NC2=O)c1 (stereo partly drawn) [Example 2306] ({CH2CO}-RY(Carboxymethyl)D[Phe(3-Me)]E[Bip]Y(Carboxymethyl)[NMeA][dL][Dab][Cha]V[Thr(3ξ)]C[Dab][Aun]-OH; thioether N-14) |
| 0.0138 | Cc1cccc(C[C@@H]2NC(=O)[C@H](CC(=O)O)NC(=O)[C@H](Cc3ccc(OCC(=O)O)cc3)NC(=O)[C@H](CCCNC(=N)N)NC(=O)CSC[C@@H](C(=O)N[C@@H](CCN)C(=O)NCCCCCCCCCCC(=O)O)NC(=O)[C@H](C(C)O)NC(=O)[C@H](C(C)C)NC(=O)[C@H](CC3CCCCC3)NC(=O)[C@H](CCN)NC(=O)[C@@H](CC(C)C)NC(=O)[C@H](C)N(C)C(=O)[C@H](Cc3ccc(OCC(=O)O)cc3)NC(=O)[C@H](Cc3ccc(-c4ccccc4)cc3)NC(=O)[C@H](Cc3ccc(OCC(=O)O)cc3)NC2=O)c1 (stereo partly drawn) [Example 2307] ({CH2CO}-RY(Carboxymethyl)D[Phe(3-Me)]Y(Carboxymethyl)[Bip]Y(Carboxymethyl)[NMeA][dL][Dab][Cha]V[Thr(3ξ)]C[Dab][Aun]-OH; thioether N-14) |
| 0.0301 | Cc1cccc(C[C@@H]2NC(=O)[C@H](CC(=O)O)NC(=O)[C@H](Cc3ccc(OCC(=O)O)cc3)NC(=O)[C@H](C(C)O)NC(=O)CSC[C@@H](C(=O)N[C@@H](CCN)C(=O)NCCCCCCCCCCC(=O)O)NC(=O)[C@H](CCO)NC(=O)[C@H](C(C)C)NC(=O)[C@H](CC3CCCCC3)NC(=O)[C@H](CCN)NC(=O)[C@@H](CC(C)C)NC(=O)[C@H](C)N(C)C(=O)[C@H](Cc3ccc(OCC(=O)O)cc3)NC(=O)[C@H](Cc3ccc(-c4ccccc4)cc3)NC(=O)[C@H](CCCNC(N)=O)NC2=O)c1 (stereo partly drawn) [Example 2348] ({CH2CO}-[Thr(3ξ)]Y(Carboxymethyl)D[Phe(3-Me)][Cit][Bip]Y(Carboxymethyl)[NMeA][dL][Dab][Cha]V[hSer]C[Dab][Aun]-OH; thioether N-14) |

Same assay, conditions: PE-labeled PD-L1-Ig 20 nM final, Jurkat-hPD-1 cells; read-out: Jurkat HPD1 PDL1 IC50

| IC50 [µM] | Structure (SMILES) |
| --- | --- |
| 0.0093 | CCC(C)[C@@H]1NC(=O)[C@H](Cc2ccc(-c3ccccc3)cc2)NC(=O)[C@H](Cc2ccc(C(N)=O)cc2)NC(=O)[C@H](Cc2cccc(C)c2)NC(=O)[C@H](CC(=O)O)NC(=O)[C@H](Cc2ccc(OCC(=O)O)cc2)NC(=O)[C@H](C(C)O)NC(=O)CSC[C@@H](C(=O)N[C@@H](CCN)C(=O)NCCOCCOCC(=O)NCCCCCCCCCCC(=O)O)NC(=O)[C@H](C(C)O)NC(=O)[C@H](C(C)(C)O)NC(=O)[C@H](CC2CCCCC2)NC(=O)[C@H](CCN)NC(=O)[C@@H](CC(C)C)NC(=O)[C@H](C)N(C)C1=O (stereo partly drawn) [Example 2471] ({CH2CO}-[Thr(3ξ)]Y(Carboxymethyl)D[Phe(3-Me)][Phe(4-CONH2)][Bip][Ile(3ξ)][NMeA][dL][Dab][Cha][Val(3-OH)][Thr(3ξ)]C[Dab][AEEA][Aun]-OH; thioether N-14) |
| 0.0092 | CC(C)C[C@H]1NC(=O)[C@H](C)N(C)C(=O)[C@H](Cc2ccc(OCC(=O)O)cc2)NC(=O)[C@H](Cc2ccc(-c3ccccc3)cc2)NC(=O)[C@H](Cc2ccc(C(=O)O)cc2)NC(=O)[C@H](Cc2cccc(C(F)(F)F)c2)NC(=O)[C@H](CC(=O)O)NC(=O)[C@H](Cc2ccc(OCC(=O)O)cc2)NC(=O)[C@H](Cc2cnc[nH]2)NC(=O)CSC[C@@H](C(=O)N[C@@H](CCN)C(=O)NCCCCCCCCCCC(=O)O)NC(=O)[C@H](CCC(=O)O)NC(=O)[C@H](C(C)C)NC(=O)[C@H](CC2CCCCC2)NC(=O)[C@H](CCN)NC1=O [Example 2581] ({CH2CO}-HY(Carboxymethyl)D[Phe(3-CF3)][Phe(4-COOH)][Bip]Y(Carboxymethyl)[NMeA][dL][Dab][Cha]VEC[Dab][Aun]-OH; thioether N-14) |
| 0.0054 | CCCC[C@@H]1NC(=O)CSC[C@@H](C(=O)N[C@@H](CCN)C(=O)NCCOCCOCC(=O)NCCCCCCCCCCC(=O)O)NC(=O)[C@H](CCC(=O)O)NC(=O)[C@H](C(C)C)NC(=O)[C@H](CC2CCCCC2)NC(=O)[C@H](CCN)NC(=O)[C@@H](CC(C)C)NC(=O)[C@H](C)N(C)C(=O)[C@H](Cc2ccc(C(=O)O)cc2)NC(=O)[C@H](Cc2ccc(-c3ccccc3)cc2)NC(=O)[C@H](Cc2ccc(C(=O)O)cc2)NC(=O)[C@H](Cc2cccc(C)c2)NC(=O)[C@H](CC(=O)O)NC(=O)[C@H](Cc2ccc(C(=O)O)cc2)NC1=O [Example 2549] ({CH2CO}-[Nle][Phe(4-COOH)]D[Phe(3-Me)][Phe(4-COOH)][Bip][Phe(4-COOH)][NMeA][dL][Dab][Cha]VEC[Dab][AEEA][Aun]-OH; thioether N-14) |
